Reference: patent US20110183366A1, “Methods for achieving a protective ACE2 expression level to treat kidney disease and hypertension” (priority 2004, published 2011)
Entries after “also recorded” stand apart in the source; their conditions may differ.

Experiments:
[1] = system: ACE and ACE2 in kidney cortex; assay: 7-Mca-YVADAPK(Dnp) fluorescence assay in kidney cortex tissue extracts; assay type: biochemical, mouse; settings: for fluorescence signal, % of control: EDTA 1 mmol/L, captopril and MLN-4760 alone or concomitantly
[2] = biological target: T1, human recombinant (hr) ACE2 (Homo sapiens, UniProt Q9BYF1); assay: Fluorescence quenching with 7-Mca-YVADAPK(Dnp) substrate on recombinant ACE2; assay type: biochemical; settings: for quenching of fluorescence: hrACE2 20 nmol/L, inhibitor concentration up to 100 μmol/L
T1 construct: purchased R&D Systems
Method: A fluorescent substrate of ACE and ACE2, i.e., 7-Mca-YVADAPK(Dnp) (R&D Systems), was used to concurrently assay ACE and ACE2 protein activity in tissue samples. Cleavage of this substrate by either enzyme removes the 2,4-dinitrophenyl moiety that quenches the fluorescence of the 7-methoxycoumarin moiety, thus resulting in increased fluorescence. To prevent undesirable hydrolysis of the substrate by a range of non-metalloprotease enzymes from mouse tissues, all tests were performed with the addition of an inhibitor cocktail (complete EDTA-free tablets, Roche).
MLN-4760 quenched the signal completely at 1-10 nmol/L, whereas a higher concentration (100 nmol/L) of DX600 was needed to achieve complete quenching of the signal. Therefore, further studies were done using MLN-4760. In tissue extracts, the concentrations of MLN-4760 required for fluorescence quenching were high and more variable.

db/m and db/db mice [3] = assay: Urinary albumin/creatinine ratio during chronic ACE2 inhibition in db/m and db/db mice; assay type: in vivo, mouse
Excerpt: Pharmacological ACE2 inhibition in db/m and db/db mice. […] Vehicle control mice received injections of sterile PBS in the same volume. […] Urinary albumin/creatinine ratio. ELISA kits for murine urinary albumin and creatinine companion kits from Exocell were used according to manufacturer's instructions to measure albumin/creatinine ratio in urine samples. Spot urine samples were collected at 8 weeks of age, before initiating the administration of the ACE2 inhibitor, and the AT1 blocker (at 8 weeks of age) and after 12 and 16 weeks of administration of these agents. Statistical analysis. Statistical analysis was performed using unpaired t-test or ANOVA when appropriate. Significance was defined as p<0.05. Data were expressed as mean±SE. The Effect of chronic ACE2 inhibition on albumin excretion and glomerular fibronectin deposition. To determine the extent to which chronic ACE2 inhibition results in increased albuminuria in the db/db mice, a specific ACE2 inhibitor, MLN-4760, was administered to the mice for 16 consecutive weeks starting at 8 weeks of age. At 8 weeks of age, before starting MLN or vehicle administration, db/db mice from both groups had virtually indistinguishable levels of urinary albumin excretion (UAE; 69.5±18 vs. 81±15 μg albumin/mg creatinine, respectively). […] In db/m mice treated with MLN-4760, UAE was higher than in the vehicle-treated db/m controls, but the difference was small and not statistically significant (55±24 vs. 32±3, μg/mg, respectively, p=NS).

db/m and db/db mice [4] = assay: Glomerular fibronectin staining after chronic ACE2 inhibition; assay type: in vivo, mouse
Method: Pharmacological ACE2 inhibition in db/m and db/db mice. A specific ACE2 inhibitor, MLN-4760 (kind gift from Millennium Pharmaceuticals, Cambridge, Mass.) was injected to db/m and db/db mice subcutaneously (40-80 mg per kg of body weight (mg/kg/BW), every other day), starting at 8 weeks of age until the mice reached the age of 24 weeks. Vehicle control mice received injections of sterile PBS in the same volume.
Chronic ACE2 inhibition was also associated with an increased glomerular deposition of fibronectin, an extracellular matrix protein. In glomeruli from db/m mice receiving MLN-4760, fibronectin staining was increased as compared to their vehicle-treated db/m counterparts. In db/db mice, the MLN-4760 administration was also associated with an exaggeration of fibronectin staining. The number of glomeruli with strong fibronectin staining was used to semi-quantify the observed changes in kidneys from 12-16 animals in each group.

podocytes in culture = settings: cited from earlier work

T1 sequence (Q9BYF1 18-805): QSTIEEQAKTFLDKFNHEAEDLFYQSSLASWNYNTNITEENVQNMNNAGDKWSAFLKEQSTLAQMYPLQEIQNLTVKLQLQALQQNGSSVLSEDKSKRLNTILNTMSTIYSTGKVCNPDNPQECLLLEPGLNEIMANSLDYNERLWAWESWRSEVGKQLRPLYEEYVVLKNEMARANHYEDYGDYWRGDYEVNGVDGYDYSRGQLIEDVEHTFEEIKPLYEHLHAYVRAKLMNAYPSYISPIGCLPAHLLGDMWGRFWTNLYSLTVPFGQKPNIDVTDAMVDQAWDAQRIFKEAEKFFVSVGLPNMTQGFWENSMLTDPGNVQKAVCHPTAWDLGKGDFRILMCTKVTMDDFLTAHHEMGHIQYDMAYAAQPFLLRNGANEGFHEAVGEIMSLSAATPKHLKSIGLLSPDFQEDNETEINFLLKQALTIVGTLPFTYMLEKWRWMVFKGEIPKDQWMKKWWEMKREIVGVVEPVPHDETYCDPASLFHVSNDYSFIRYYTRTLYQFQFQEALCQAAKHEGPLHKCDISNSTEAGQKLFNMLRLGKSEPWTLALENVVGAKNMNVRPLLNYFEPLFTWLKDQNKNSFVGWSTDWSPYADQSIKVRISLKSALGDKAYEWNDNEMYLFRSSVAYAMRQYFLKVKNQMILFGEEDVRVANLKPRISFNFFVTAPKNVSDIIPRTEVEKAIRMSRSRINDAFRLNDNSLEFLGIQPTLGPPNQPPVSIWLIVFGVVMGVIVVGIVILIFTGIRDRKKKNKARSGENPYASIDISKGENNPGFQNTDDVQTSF

SMILES: O=C(O)CN(CCN(CC(=O)O)CC(=O)O)CC(=O)O [EDTA]
- fluorescence signal, % of control [1]: about 16 % of control

SMILES: CC(C)C[C@H](N[C@@H](Cc1cncn1Cc1cc(Cl)cc(Cl)c1)C(=O)O)C(=O)O [MLN-4760, (S,S)-2-{1-carboxy-2-[3-(3,5-dichlorobenzyl)-3H-imidazol4-yl]-ethylamino}-4-methylpentanoic acid]
- concentration for complete quenching of the signal ([2]; hrACE2): 1 to 10 nmol/L
- increase in UAE in comparison to vehicle db/db controls (db/m and db/db mice [3]; db/db mice, 16 weeks of treatment, age 24 weeks): about three-fold
- albumin/creatinine ratio (db/m and db/db mice [3]; db/db mice, MLN-4760 s.c. 40-80 mg/kg every other day, after 12 weeks of treatment, vehicle 124±23): 474 ± 166 µg/mg
- urinary albumin excretion (UAE) (db/m and db/db mice [3]; db/db mice, after 16 weeks of treatment, age 24 weeks, vehicle 247±53.9): 743 ± 200 µg/mg
- urinary albumin excretion (UAE) (db/m and db/db mice [3]; db/m mice treated with MLN-4760, vehicle 32±3, p=NS): 55 ± 24 µg/mg
- fluorescence signal, % of control [1]: 46.4±0.7 % of control
- percentage of glomeruli with strong fibronectin staining (db/m and db/db mice [4]; db/db mice treated with MLN-4760, vehicle 28.5%±6.4): 54.8%±4.6
- percentage of glomeruli with strong fibronectin staining (db/m and db/db mice [4]; db/m mice receiving MLN-4760, vehicle 17.3%±5.2): 41.1%±4.1

SMILES: O=C(O)CC(Cc1ccccc1)C(=O)O (stereo not drawn) [benzyl succinate]
- quenching of fluorescence [2]: failed to quench fluorescence
- reduction of fluorescence signal ([1]; benzyl succinate 100 μmol/L): did not reduce significantly the fluorescence signal

SMILES: C[C@H](CS)C(=O)N1CCC[C@H]1C(=O)O [captopril]
- quenching of fluorescence [2]: failed to quench fluorescence
- fluorescence signal, % of control [1]: 24.9±1.1 % of control
- effect on stretch-induced increase in ANG II generation (podocytes in culture): did not abrogate the stretch-induced increase in ANG II generation

SMILES: CCCc1nc2c(C)cc(-c3nc4ccccc4n3C)cc2n1Cc1ccc(-c2ccccc2C(=O)O)cc1 [telmisartan]
- effect on the increase in urinary albumin associated with the ACE2 inhibitor (db/m and db/db mice [3]; db/db mice, telmisartan 2 mg/kg/day in drinking water together with s.c. MLN-4760): prevented the increase in urinary albumin excretion; also recorded: completely prevented the increase in urinary albumin
